Data on one compound can be found in patent publication US5668137A, “N-heterocyclic sulfonamides having endothelin receptor activity” (Zeneca Ltd., priority 1995, dated 1997).

The test deals with Human ETA or ETB receptors. Nature of the test: Test A: inhibition of [125I]-Endothelin-1 binding to MEL cell membranes expressing recombinant receptor. As to conditions: inhibition of 30 pM [125I]-Endothelin-1 binding, 180 minutes at 30° C., receptor sub-type (ETA or ETB) not stated. The text has this:
The endothelin receptor antagonist activity of compounds of formula I may be assessed in vitro by their ability to inhibit binding of [^125 ]-Endothelin-1 to its receptors. Human ETA or ETB receptors (sub-types of the endothelin receptor) were expressed in Mouse Erythroleukemic Cells (MEL cells) by using standard molecular techniques (for example, as described by Sambrook J., Fritsch E. F. & Maniatis T. (1989) Molecular Cloning: A Laboratory Manual, 2nd Edition, Cold Spring Harbor Press, USA). cDNA sequences encoding the human ETA, and ETB receptor (Hosoda K. et al (1991), FEBS Lett., 287, 23-26 and Sakamoto A. et al, (1991), Biochem. Biophys Res. Comm., 178, 656-663) are subcloned into pBluescript vector followed by insertion into the MEL cell expression vector pEV as described by Needham et al (1992), Nuc. Acids Res., 20, 997-1003. […]
[^125 I]-Endothelin-1 binding to MEL cell membranes was measured in incubation buffer containing 50 mM Tris HCl, 1 mM CaCl2, 0.05% polyoxyethylenesorbitan monolaurate, 0.1% Bovine Serum Albumin (BSA), 0.02% sodium azide pH 7.4 at 30° C. after 180 minutes incubation. […] Nonspecific binding was measured in the presence of 100 nM unlabelled Endothelin-1. […] The filter discs were punched out and counted in a gamma counter. Compounds are tested in triplicate over a range of concentrations and IC50 (or pIC50) values calculated.

In the case of `COc1nc(C)cnc1NS(=O)(=O)c1ccccc1-c1ccc(CC(C)C(=O)O)cc1` (stereo not shown) [Example 1, 4'-(2-carboxypropyl)-N-(3-methoxy-5-methylpyrazin-2-yl)-2-biphenylsulphonamide], the “pIC50 in Test A” value is reported as 8.3.
